Reference: patent publication US11814393B2, “Substituted guanidine compounds” (UBE CORPORATION, priority 2016, dated 2023)

Tests used:
Human VAP-1 enzyme = biological target: T1, Human VAP-1 enzyme (Homo sapiens, UniProt Q16853); test: Human VAP-1 enzyme inhibition test; type: biochemical; settings: compound 30 nM; 14C-benzylamine 100 μM, 37° C., 1 hour; read-out: inhibition ratio
T1 construct: purchased R&D Systems, Inc
T1 sequence (Q16853 27-763 limits assumed): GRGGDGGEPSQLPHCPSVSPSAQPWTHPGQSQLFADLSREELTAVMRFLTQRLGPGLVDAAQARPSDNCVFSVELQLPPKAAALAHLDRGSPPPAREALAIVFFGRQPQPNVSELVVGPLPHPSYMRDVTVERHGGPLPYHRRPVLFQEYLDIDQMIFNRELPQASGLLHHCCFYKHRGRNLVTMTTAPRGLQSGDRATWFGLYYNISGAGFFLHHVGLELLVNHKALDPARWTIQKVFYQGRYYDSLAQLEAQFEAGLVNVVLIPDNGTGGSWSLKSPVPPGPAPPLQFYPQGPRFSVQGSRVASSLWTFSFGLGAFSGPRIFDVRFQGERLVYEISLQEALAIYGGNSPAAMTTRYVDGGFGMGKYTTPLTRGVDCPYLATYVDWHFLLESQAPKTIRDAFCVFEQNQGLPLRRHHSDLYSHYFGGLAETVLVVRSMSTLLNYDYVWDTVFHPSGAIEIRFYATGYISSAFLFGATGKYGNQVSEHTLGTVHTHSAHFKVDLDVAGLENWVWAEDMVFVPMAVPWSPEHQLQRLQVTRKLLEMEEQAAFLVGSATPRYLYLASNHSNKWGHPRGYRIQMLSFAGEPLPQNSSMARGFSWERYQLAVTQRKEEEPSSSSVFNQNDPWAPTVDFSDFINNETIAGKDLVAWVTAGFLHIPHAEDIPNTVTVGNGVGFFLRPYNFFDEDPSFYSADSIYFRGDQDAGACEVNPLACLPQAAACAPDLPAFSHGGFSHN
Method: Human VAP-1 Enzyme Inhibition Test
This test was conducted by modifying the method of P. H. Yu et al. (Diabetologia 40 1243 (1997)). Human VAP-1 enzyme (R&D Systems, Inc.) was pre-incubated in a 96-well plate with the compound dissolved in dimethylsulfoxide at room temperature for 20 minutes. Next, in a solution to the final volume of 200 μL, the enzyme reaction solution was incubated with ^14C-benzylamine (final concentration 100 μM) at 37° C. for 1 hour. The reaction was terminated by the addition of 100 μL of 2 M citric acid solution to the reaction solution. The oxidative product was extracted using a toluene/ethyl acetate mixture and the radioactivity was measured with a liquid scintillation counter. The inhibition ratio of the compound was calculated using the following equation. Inhibition ratio={1−[VAP-1 enzyme activity after treatment with the compound]/[VAP-1 enzyme activity in the presence of dimethylsulfoxide alone without the compound]}×100 [Math. 1]

rat plasma VAP-1 = biological target: T2, rat plasma VAP-1 (Rattus norvegicus, UniProt O08590); test: (Ex vivo) rat plasma VAP-1 inhibition test after oral administration of the compound; type: in vivo; settings: 3 hours after oral administration, SD male rats, non-fasting, read-out: inhibition ratio (plasma VAP-1 activity)
T2 construct: The blood was centrifuged at 14000 rpm for 10 minutes to get plasma; from tissue; host or cells: plasma of SD male rats (ex vivo, after oral dosing)
T2 sequence (O08590 28-763 limits assumed): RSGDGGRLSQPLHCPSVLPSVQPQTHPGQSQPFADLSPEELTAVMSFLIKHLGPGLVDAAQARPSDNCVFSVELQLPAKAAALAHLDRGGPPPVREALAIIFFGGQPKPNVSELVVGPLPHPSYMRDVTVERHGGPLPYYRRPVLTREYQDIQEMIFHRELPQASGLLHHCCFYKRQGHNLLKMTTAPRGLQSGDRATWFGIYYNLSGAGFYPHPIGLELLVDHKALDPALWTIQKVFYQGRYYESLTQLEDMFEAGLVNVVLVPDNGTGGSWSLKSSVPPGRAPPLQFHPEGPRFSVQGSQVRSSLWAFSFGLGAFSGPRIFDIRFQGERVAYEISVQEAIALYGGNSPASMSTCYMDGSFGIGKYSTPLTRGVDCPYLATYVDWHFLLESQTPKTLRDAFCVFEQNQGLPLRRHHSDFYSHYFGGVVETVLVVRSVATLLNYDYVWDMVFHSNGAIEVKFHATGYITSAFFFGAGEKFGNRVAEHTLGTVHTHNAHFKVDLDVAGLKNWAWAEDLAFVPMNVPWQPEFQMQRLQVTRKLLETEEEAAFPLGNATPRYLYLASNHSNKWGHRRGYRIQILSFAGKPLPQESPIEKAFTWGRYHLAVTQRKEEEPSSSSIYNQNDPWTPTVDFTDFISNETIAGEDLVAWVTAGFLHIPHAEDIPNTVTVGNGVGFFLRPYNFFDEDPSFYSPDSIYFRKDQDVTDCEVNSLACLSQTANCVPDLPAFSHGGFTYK
Method: (Ex Vivo) Rat Plasma VAP-1 Inhibition Test after Oral Administration of the Compound
The compound was orally administered (0.3-10 mg/kg) to 7-12 week old SD male rats in the non-fasting state. Under anesthesia, the blood was collected in heparin tubes from the jugular vein before the administration and 3, 8 and 24 hours after the administration. The blood was centrifuged at 14000 rpm for 10 minutes to get plasma. The VAP-1 enzyme activity in the plasma was measured by radiochemical enzyme assay.
The radiochemical enzyme assay was conducted by modifying the method of P. H. Yu et al. (Diabetologia 40 1243 (1997)). ^14C-benzylamine (2.5 μM) was added to the obtained plasma, and was incubated at 37° C. for 3 hours. The reaction was terminated by the addition of 100 μL of 2 M citric acid solution to the reaction solution. The oxidative product was extracted using a toluene/ethyl acetate mixture and the radioactivity was measured with a liquid scintillation counter. The inhibition ratio of the compound was calculated using the following equation. Inhibition ratio={1−[Plasma VAP-1 activity after administration of the compound]/[Plasma VAP-1 activity before administration]}×100 [Math. 4]

[1] = Rat pharmacokinetic (PK) study (concentration of compound in plasma after oral administration); type: in vivo, SD rats; settings: dose 3 mg/kg
Method: Rat Pharmacokinetic (PK) Study (Concentration of Compound in Plasma after Oral Administration)
Seven to eight week old SD rats (weighing 180 to 250 g) were orally administered with a suspension of the compound in 0.5 W/V % methylcellulose 400 solution. Under anesthesia, the blood was collected from the jugular vein in EDTA tubes at 0.25, 0.5, 1, 2, 4, 6, 8 and 24 hours after the administration of the compound. The blood was centrifuged at 4° C. and 6000 g for 3 minutes to give plasma. Acetonitrile was added to the plasma, and the mixture was stirred with a shaker at 750 rpm for 3 minutes and was deproteinized by centrifugation at 3700 rpm for 2 minutes. The obtained sample was analyzed by LC/MS under the following conditions.
The concentration of the compound in the plasma at each blood sampling time was determined by an internal standard method, and AUC all (Area Under Curve) was calculated by a trapezoidal method.
The following LC and MS systems were used for measurement.
LC: CBM 30 series manufactured by Shimadzu Corporation
Column: Phenomenex Kinetex C18 (50×2.1 mm, 2.6 μm)
Column temperature: 40° C.
Mobile phase A: 0.1% aqueous formic acid solution, mobile phase B: 0.1% formic acid, 50% acetonitrile/methanol mixture
MS: 3200 manufactured by SCIEX

Compound	inhibition at 0.03 µM (Human VAP-1 enzyme) [%]	inhibition in vivo at 0.3 mg/kg (rat plasma VAP-1) [%]	amount of metabolites found in the blood [1]
CCOC1CN(c2ncc(-c3cccc(COC(=O)NC(=N)N)c3F)cc2F)C1 [Example 3, 3-[6-(3-Ethoxyazetidin-1-yl)-5-fluoropyridin-3-yl]-2-fluorobenzyl carbamimidoylcarbamate]	≥ 50	≥ 50	–
CC1CN(c2ncc(-c3cccc(COC(=O)NC(=N)N)c3F)cc2F)C1 [Example 12, 2-Fluoro-3-[5-fluoro-6-(3-methylazetidin-1-yl)pyridin-3-yl]benzyl carbamimidoylcarbamate]	≥ 50	≥ 50	–
N=C(N)NC(=O)OCc1cccc(-c2cnc(N3CC(F)(F)C3)c(F)c2)c1F [Example 11, 3-[6-(3,3-Difluoroazetidin-1-yl)-5-fluoropyridin-3-yl]-2-fluorobenzyl carbamimidoylcarbamate]	≥ 50	≥ 50	–
N=C(N)NC(=O)OCc1cccc(-c2cnc(N3CCC3)c(F)c2)c1F [Example 9, 3-[6-(Azetidin-1-yl)-5-fluoropyridin-3-yl]-2-fluorobenzyl carbamimidoylcarbamate]	≥ 50	≥ 50	–
CC1(C)CN(c2ncc(-c3cccc(COC(=O)NC(=N)N)c3F)cc2F)C1 [Example 13, 3-[6-(3,3-Dimethylazetidin-1-yl)-5-fluoropyridin-3-yl]-2-fluorobenzyl carbamimidoylcarbamate]	≥ 50	≥ 50	–
N=C(N)NC(=O)OCc1cccc(-c2cnc(N3CC(O)C3)c(F)c2)c1F [Example 8, 2-Fluoro-3-[5-fluoro-6-(3-hydroxyazetidin-1-yl)pyridin-3-yl]benzyl carbamimidoylcarbamate]	≥ 50	≥ 50	small
N=C(N)NC(=O)OCc1cccc(-c2cnc(N3CC4(COC4)C3)c(F)c2)c1F [Example 16, 2-Fluoro-3-[5-fluoro-6-(2-oxa-6-azaspiro[3.3]heptan-6-yl)pyridin-3-yl]benzyl carbamimidoylcarbamate]	≥ 50	≥ 50	small
N=C(N)NC(=O)OCc1cccc(-c2cnc(N3CC(OCCF)C3)c(F)c2)c1F [Example 4, 2-Fluoro-3-{5-fluoro-6-[3-(2-fluoroethoxy)azetidin-1-yl]pyridin-3-yl}benzyl carbamimidoylcarbamate]	≥ 50	≥ 50	–
CC(C)OC1CN(c2ncc(-c3cccc(COC(=O)NC(=N)N)c3F)cc2F)C1 [Example 6, 2-Fluoro-3-[5-fluoro-6-(3-isopropoxyazetidin-1-yl)pyridin-3-yl]benzyl carbamimidoylcarbamate]	≥ 50	≥ 50	–
N=C(N)NC(=O)OCc1cccc(-c2cnc(N3CC(F)C3)c(F)c2)c1F [Example 10, 2-Fluoro-3-[5-fluoro-6-(3-fluoroazetidin-1-yl)pyridin-3-yl]benzyl carbamimidoylcarbamate]	≥ 50	≥ 50	–
[2H]C([2H])([2H])OC1CN(c2ncc(-c3cccc(COC(=O)NC(=N)N)c3F)cc2F)C1 [Example 2, 2-Fluoro-3-{5-fluoro-6-[3-(methoxy-d3)azetidin-1-yl]pyridin-3-yl}benzyl carbamimidoylcarbamate]	≥ 50	≥ 50	–
COC1CN(c2ncc(-c3cccc(COC(=O)NC(=N)N)c3F)cc2F)C1 [Example 1, 2-Fluoro-3-[5-fluoro-6-(3-methoxyazetidin-1-yl)pyridin-3-yl]benzyl carbamimidoylcarbamate]	≥ 50	≥ 50	–
CC1(O)CN(c2ncc(-c3cccc(COC(=O)NC(=N)N)c3F)cc2F)C1 [Example 15, 2-Fluoro-3-[5-fluoro-6-(3-hydroxy-3-methylazetidin-1-yl)pyridin-3-yl]benzyl carbamimidoylcarbamate]	≥ 50	≥ 50	small
